{
  "source": "patent US6696064B2",
  "about": "(priority 2000, dated 2004)",
  "key": {"normal rat brain": {"system": "normal rat brain", "details": "in vivo"}, "healthy volunteers": {"system": "healthy volunteers", "details": "300 mg single dose i.v. infusion, eleven healthy volunteers; cited from earlier work"}, "[1]": {"details": "cited from earlier work"}},
  "data": [
    {"molecule": "CCN(CC)CCCC(C)Nc1ccnc2cc(Cl)ccc12", "note": "(stereo not drawn) [chloroquine]", "values": [
      {"measurement": "effect of chloroquine on histological brain damage in rats that received DT", "setting": "normal rat brain", "value": "did not reduce the histological rain damage"},
      {"measurement": "effect of systemic chloroquine on brain damage caused by Tf-CRM107", "setting": "normal rat brain", "value": "completely blocked the brain damage"},
      {"measurement": "effects on the electrocardiogram, mean arterial blood pressure, or pulse rate", "setting": "healthy volunteers", "value": "no effects were seen"},
      {"measurement": "side effects during i.v. infusion", "setting": "healthy volunteers", "value": "only of subjective side effects"},
      {"measurement": "time to maximum blood levels", "setting": "[1]; after oral administration", "value": "3 to 5", "unit": "h"},
      {"measurement": "amounts deposited in brain, times smaller than in other body tissues", "setting": "[1]; in vivo", "value": "7 to 70", "unit": "times"}
    ]}
  ]
}
